ChEMBL document CHEMBL5260838 (J Med Chem, 2019)
Activity calls are given as the source filed them. The calls are words filed in the database; no cut-off is given here.

How the values were obtained:
[1] = biological target: Sodium channel protein type 9 subunit alpha (Homo sapiens, UniProt Q15858); assay: Inhibition of human Nav1.7 alpha subunit expressed in HEK293 cells co-expressing beta1 subunit at -60 mV holding potential by whole-cell patch voltage clamp electrophysiology recording; format: cell-based
Chain of Sodium channel protein type 9 subunit alpha (Q15858 whole entry): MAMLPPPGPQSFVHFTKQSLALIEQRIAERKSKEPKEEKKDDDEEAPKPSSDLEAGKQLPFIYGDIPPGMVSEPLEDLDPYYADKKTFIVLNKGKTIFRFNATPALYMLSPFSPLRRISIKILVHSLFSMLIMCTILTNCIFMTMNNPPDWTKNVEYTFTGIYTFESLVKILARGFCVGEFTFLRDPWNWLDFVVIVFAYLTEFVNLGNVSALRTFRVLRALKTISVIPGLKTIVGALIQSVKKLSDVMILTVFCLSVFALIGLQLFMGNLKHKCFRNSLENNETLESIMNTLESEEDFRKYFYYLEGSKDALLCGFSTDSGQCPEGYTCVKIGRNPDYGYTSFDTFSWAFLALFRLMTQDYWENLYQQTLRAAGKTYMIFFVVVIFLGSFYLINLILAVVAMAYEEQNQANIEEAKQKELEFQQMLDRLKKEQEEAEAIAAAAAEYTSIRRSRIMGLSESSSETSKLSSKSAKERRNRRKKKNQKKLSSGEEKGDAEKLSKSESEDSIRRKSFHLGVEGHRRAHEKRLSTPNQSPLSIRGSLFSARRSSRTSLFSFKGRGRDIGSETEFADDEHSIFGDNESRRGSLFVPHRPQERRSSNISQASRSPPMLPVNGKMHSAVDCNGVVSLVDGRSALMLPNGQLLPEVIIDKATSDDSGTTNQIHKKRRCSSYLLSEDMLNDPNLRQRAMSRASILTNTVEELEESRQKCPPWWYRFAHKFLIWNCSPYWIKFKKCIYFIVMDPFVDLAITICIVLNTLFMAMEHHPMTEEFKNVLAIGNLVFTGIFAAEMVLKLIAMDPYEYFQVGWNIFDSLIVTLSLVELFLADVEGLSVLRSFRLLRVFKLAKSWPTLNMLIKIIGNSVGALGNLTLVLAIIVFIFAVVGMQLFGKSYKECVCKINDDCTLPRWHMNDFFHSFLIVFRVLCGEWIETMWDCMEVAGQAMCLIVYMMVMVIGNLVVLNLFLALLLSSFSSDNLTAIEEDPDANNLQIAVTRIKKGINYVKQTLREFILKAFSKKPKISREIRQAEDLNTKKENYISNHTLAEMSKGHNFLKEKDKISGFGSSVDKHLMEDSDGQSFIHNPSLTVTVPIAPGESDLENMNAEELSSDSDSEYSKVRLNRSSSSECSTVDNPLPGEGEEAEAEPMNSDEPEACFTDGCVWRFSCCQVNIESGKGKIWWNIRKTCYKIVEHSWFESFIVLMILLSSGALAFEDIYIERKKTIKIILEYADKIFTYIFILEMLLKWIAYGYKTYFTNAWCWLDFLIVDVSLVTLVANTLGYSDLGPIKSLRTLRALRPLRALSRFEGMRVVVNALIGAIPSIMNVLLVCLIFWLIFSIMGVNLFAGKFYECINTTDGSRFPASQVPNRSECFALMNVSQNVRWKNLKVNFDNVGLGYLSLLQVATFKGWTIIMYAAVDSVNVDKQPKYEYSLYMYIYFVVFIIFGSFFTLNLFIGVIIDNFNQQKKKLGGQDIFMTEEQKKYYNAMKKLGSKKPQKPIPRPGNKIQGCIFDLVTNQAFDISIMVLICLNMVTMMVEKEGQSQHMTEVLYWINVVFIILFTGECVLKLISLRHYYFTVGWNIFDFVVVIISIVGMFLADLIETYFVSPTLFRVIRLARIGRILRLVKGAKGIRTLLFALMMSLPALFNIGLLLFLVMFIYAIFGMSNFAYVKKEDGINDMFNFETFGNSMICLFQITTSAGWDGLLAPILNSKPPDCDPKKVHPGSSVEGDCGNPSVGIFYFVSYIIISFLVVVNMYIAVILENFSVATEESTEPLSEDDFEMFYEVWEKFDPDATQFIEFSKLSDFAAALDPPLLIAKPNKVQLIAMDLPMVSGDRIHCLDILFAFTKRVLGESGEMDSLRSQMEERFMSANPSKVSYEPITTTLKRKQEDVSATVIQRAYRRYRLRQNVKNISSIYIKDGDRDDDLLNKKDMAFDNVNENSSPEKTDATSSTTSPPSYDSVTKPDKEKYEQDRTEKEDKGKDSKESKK

Cytochrome P450 3A4 = Cytochrome P450 3A4 (Homo sapiens, UniProt P08684); assay: Inhibition of CYP3A4 (unknown origin); format: ADME
Chain of Cytochrome P450 3A4 (P08684 whole entry): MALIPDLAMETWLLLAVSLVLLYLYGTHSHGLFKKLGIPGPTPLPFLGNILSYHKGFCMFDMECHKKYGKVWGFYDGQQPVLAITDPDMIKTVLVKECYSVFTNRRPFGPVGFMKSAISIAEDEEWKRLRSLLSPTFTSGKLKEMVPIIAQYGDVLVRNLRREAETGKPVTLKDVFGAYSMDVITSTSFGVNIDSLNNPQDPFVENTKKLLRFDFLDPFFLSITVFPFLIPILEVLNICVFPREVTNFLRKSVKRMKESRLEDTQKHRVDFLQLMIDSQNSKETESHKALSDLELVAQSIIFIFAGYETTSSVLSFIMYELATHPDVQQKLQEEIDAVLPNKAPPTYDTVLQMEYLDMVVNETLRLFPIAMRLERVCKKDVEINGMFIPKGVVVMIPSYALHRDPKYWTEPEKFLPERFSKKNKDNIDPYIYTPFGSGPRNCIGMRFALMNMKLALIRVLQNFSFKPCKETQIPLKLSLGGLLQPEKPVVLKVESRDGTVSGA

Cytochrome P450 2C19 = Cytochrome P450 2C19 (Homo sapiens, UniProt P33261); assay: Inhibition of CYP2C19 (unknown origin); format: ADME
Chain of Cytochrome P450 2C19 (P33261 whole entry): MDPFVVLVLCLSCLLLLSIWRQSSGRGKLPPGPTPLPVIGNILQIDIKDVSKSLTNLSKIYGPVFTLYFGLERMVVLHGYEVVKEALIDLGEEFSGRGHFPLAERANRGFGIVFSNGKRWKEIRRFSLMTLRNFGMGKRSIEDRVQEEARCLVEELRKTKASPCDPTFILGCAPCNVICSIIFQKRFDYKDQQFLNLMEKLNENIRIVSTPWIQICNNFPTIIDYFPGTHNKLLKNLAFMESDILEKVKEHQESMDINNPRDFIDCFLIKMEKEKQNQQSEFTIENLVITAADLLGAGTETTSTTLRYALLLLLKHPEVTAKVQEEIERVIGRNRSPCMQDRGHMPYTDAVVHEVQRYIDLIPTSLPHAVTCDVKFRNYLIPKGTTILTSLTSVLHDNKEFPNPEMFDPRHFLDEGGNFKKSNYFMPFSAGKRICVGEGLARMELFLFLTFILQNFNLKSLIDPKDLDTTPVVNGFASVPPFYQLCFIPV

[2] = Apparent permeability from apical to basolateral side in MDCK1 cells; format: ADME, cell-based, Canis lupus familiaris; conditions: dog, MDCK
[3] = Protein binding in human plasma; format: ADME, cell-free; conditions: read-out: PPB (converted)
[4] = Lipophilicity, logD of the compound at pH 7.4; format: physicochemical; conditions: buffer, read-out: logD
[5] = biological target: Sodium channel protein type 5 subunit alpha (Homo sapiens, UniProt Q14524); assay: Inhibition of human Nav1.5 alpha subunit expressed in HEK293 cells co-expressing beta1 subunit at -60 mV holding potential by PatchXpress automated voltage clamp electrophysiology technique; format: cell-based
Chain of Sodium channel protein type 5 subunit alpha (Q14524 whole entry): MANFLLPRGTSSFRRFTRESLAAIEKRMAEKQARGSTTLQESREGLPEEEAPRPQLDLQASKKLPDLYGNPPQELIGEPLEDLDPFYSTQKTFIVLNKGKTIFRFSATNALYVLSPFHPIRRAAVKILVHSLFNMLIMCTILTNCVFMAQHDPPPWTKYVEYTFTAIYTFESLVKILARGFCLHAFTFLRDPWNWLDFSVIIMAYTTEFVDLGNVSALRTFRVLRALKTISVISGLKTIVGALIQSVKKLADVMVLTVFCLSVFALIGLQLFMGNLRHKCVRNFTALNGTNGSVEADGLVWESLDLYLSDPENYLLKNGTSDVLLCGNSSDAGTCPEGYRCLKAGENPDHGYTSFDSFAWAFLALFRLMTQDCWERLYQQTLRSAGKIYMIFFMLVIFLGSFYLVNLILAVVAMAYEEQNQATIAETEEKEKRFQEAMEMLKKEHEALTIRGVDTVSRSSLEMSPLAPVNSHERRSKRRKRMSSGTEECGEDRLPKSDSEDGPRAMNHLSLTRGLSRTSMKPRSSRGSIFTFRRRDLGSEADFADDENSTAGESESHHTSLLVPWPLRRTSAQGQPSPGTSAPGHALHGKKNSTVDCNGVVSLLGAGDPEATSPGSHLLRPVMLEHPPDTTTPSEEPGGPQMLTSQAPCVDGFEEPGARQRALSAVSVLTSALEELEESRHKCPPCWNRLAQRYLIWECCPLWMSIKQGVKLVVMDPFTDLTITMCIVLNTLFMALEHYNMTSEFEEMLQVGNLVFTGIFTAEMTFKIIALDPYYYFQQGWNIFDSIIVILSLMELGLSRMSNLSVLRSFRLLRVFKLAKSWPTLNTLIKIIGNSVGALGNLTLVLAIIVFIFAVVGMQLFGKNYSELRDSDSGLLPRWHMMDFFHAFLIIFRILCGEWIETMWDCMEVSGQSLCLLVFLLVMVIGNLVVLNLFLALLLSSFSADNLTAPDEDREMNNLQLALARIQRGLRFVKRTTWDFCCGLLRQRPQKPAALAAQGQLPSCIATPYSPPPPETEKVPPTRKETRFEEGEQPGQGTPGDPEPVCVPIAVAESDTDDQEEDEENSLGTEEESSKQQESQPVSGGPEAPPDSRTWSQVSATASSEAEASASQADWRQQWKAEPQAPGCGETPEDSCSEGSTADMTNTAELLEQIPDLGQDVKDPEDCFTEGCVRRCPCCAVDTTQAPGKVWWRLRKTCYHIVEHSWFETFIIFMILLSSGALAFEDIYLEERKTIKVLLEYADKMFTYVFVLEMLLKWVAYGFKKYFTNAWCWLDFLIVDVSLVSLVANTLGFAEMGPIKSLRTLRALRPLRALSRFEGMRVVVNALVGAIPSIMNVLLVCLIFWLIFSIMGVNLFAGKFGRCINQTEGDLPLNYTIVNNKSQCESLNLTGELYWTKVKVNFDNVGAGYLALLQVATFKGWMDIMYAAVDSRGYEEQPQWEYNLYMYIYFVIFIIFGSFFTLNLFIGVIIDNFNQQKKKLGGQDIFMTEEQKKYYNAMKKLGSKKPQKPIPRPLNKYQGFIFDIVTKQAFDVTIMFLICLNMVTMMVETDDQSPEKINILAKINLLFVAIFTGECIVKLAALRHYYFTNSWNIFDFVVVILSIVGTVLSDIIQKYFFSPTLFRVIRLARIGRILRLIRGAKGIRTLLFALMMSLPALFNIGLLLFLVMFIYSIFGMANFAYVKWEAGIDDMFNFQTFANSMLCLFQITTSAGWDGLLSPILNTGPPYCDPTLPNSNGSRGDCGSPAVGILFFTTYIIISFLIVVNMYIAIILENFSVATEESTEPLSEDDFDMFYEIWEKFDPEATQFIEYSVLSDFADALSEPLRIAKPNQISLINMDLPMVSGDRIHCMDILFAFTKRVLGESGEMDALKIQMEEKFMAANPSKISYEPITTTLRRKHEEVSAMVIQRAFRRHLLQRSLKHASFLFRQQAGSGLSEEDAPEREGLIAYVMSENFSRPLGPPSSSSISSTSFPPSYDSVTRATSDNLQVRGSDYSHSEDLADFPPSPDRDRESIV

[6] = biological target: Sodium channel protein type 10 subunit alpha (Mus musculus) (UniProt Q6QIY3); assay: Inhibition of TTX-resistant Nav1.8 in mouse dorsal root ganglion neuron at 10 uM by voltage clamp recording relative to control; format: tissue-based; conditions: DRG neuron
[7] = biological target: Sodium channel protein type 10 subunit alpha (Mus musculus, UniProt Q6QIY3); assay: Inhibition of TTX-resistant Nav1.8 in mouse dorsal root ganglion neuron by voltage clamp recording; format: tissue-based, DRG neuron
[8] = Efflux ratio of apparent permeability across basolateral to apical side over apical to basolateral side in MDCK1 cells; format: ADME, cell-based, Canis lupus familiaris; conditions: dog, MDCK
[9] = Protein binding in rat plasma; format: ADME, cell-free; conditions: read-out: PPB (converted)
MDR1 = assay: Apparent permeability from apical to basolateral side in MDCK1 cells expressing MDR1; format: ADME, cell-based, Canis lupus familiaris; conditions: dog, MDCK-MDR1
[10] = test system: mouse breast cancer resistant protein (Bcrp); assay: Apparent permeability from apical to basolateral side in MDCK-II cells expressing mouse breast cancer resistant protein; format: ADME, cell-based, Canis lupus familiaris; conditions: dog
[11] = test system: mouse breast cancer resistant protein (Bcrp); assay: Efflux ratio of apparent permeability across basolateral to apical side over apical to basolateral side MDCK-II cells expressing mouse breast cancer resistant protein; format: ADME, cell-based, Canis lupus familiaris; conditions: dog
[12] = biological target: T1, Peroxisome proliferator-activated receptor gamma (Homo sapiens) (UniProt P37231); assay: Inhibition of PPARgamma (unknown origin) at 10 uM relative to control
T1 sequence (whole entry): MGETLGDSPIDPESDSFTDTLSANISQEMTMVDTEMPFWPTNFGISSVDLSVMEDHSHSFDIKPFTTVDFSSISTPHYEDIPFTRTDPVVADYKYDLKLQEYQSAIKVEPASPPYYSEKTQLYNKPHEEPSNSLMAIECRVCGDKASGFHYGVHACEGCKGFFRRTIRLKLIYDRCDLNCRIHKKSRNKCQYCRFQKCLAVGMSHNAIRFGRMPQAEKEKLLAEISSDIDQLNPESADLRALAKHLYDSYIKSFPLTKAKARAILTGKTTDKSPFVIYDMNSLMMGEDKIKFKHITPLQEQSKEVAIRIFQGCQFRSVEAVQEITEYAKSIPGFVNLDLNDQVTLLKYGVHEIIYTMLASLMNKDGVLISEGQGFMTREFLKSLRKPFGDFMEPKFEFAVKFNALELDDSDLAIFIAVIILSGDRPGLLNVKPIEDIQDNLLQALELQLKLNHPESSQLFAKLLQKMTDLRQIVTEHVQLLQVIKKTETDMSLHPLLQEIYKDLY

[13] = Half-life in FVB mouse at 1 mg/kg, iv; format: ADME, organism-based; conditions: in vivo, iv, 1 mg/kg
[14] = Volume of distribution at steady state in FVB mouse at 1 mg/kg, iv; format: ADME, organism-based; conditions: in vivo, iv, 1 mg/kg
[15] = Half-life in FVB mouse at 30 mg/kg, po; format: ADME, organism-based; conditions: in vivo
[16] = Cmax in FVB mouse at 30 mg/kg, po; format: ADME, organism-based; parameters: dose 30 mg/kg, route po; conditions: in vivo
[17] = Half-life in Sprague-Dawley rat at 1 mg/kg, iv; format: ADME, organism-based; conditions: in vivo
[18] = Clearance in Sprague-Dawley rat at 1 mg/kg, iv; format: ADME, organism-based; conditions: in vivo
[19] = Volume of distribution at steady state in Sprague-Dawley rat at 1 mg/kg, iv; format: ADME, organism-based; conditions: in vivo, read-out: Vdss
[20] = Cmax in Sprague-Dawley rat at 5 mg/kg, po; format: ADME, organism-based; parameters: dose 5 mg/kg, route po; conditions: in vivo
[21] = AUC in Sprague-Dawley rat at 5 mg/kg, po; format: ADME, organism-based; parameters: dose 5 mg/kg, route po; conditions: in vivo
[22] = Clearance in Beagle dog at 0.5 mg/kg, iv; format: ADME, organism-based, Canis lupus familiaris; conditions: in vivo
[23] = Half-life in Beagle dog at 1 mg/kg, po; format: ADME, organism-based, Canis lupus familiaris; conditions: in vivo
[24] = Cmax in Beagle dog at 1 mg/kg, po; format: ADME, organism-based, Canis lupus familiaris; parameters: dose 1 mg/kg, route po; conditions: in vivo
[25] = AUC in Beagle dog at 1 mg/kg, po; format: ADME, organism-based, Canis lupus familiaris; parameters: dose 1 mg/kg, route po; conditions: in vivo
[26] = Oral bioavailability in Beagle dog at 1 mg/kg; format: ADME, organism-based, Canis lupus familiaris; conditions: in vivo
Mus musculus [27] = assay: Analgesic activity against formalin-induced pain in FVB mouse model assessed as reduction in formalin-induced pain at 10 mg/kg, po administered for 120 mins prior to formalin challenge and measured after 11 to 40 mins; format: functional, organism-based; conditions: time 131-160 min
Mus musculus [28] = assay: Antinociceptive activity against aconitine-induced pain in FVB mouse model expressing human Nav 1.7 I848T mutant assessed as reduction in nociceptive behavior at 0.3 mg/kg, po administered 120 mins prior to aconitine administration and measured after 70 mins relative to control; format: functional; parameters: scale not given: the % may be the effect or the level left; conditions: time 190 min, 3.167 h
Mus musculus [29] = assay: Antinociceptive activity against aconitine-induced pain in FVB mouse model expressing human Nav 1.7 I848T mutant assessed as reduction in nociceptive behavior at 1 mg/kg, po administered 120 mins prior to aconitine administration and measured after 70 mins relative to control; format: functional; parameters: scale not given: the % may be the effect or the level left; conditions: time 190 min, 3.167 h
Mus musculus [30] = assay: Antinociceptive activity against aconitine-induced pain in FVB mouse model expressing human Nav 1.7 I848T mutant assessed as reduction in nociceptive behavior at 10 mg/kg, po administered 120 mins prior to aconitine administration and measured after 70 mins relative to control; format: functional; parameters: scale not given: the % may be the effect or the level left; conditions: time 190 min, 3.167 h
[31] = Drug concentration in plasma of FVB mouse model of aconitine-induced pain expressing human Nav1.7 I848T mutant at 3 mg/kg, po administered 120 mins prior to aconitine administered and measured after 70 mins by UPLC-ESI MS/MS analysis; format: ADME, organism-based; conditions: time 190 min
[32] = Drug concentration in plasma of FVB mouse model of aconitine-induced pain expressing human Nav1.7 I848T mutant at 10 mg/kg, po administered 120 mins prior to aconitine administered and measured after 70 mins by UPLC-ESI MS/MS analysis; format: ADME, organism-based; conditions: time 190 min
[33] = Drug concentration in brain of FVB mouse model of aconitine-induced pain expressing human Nav1.7 I848T mutant at 3 mg/kg, po administered 120 mins prior to aconitine administered and measured after 70 mins by UPLC-ESI MS/MS analysis; format: ADME, organism-based; conditions: time 190 min, read-out: Ct
[34] = Drug concentration in brain of FVB mouse model of aconitine-induced pain expressing human Nav1.7 I848T mutant at 10 mg/kg, po administered 120 mins prior to aconitine administered and measured after 70 mins by UPLC-ESI MS/MS analysis; format: ADME, organism-based; conditions: time 190 min, read-out: Ct

For `CC1(COc2cc(F)c(C(=O)NS(=O)(=O)C3CC3)cc2C2CC2)CCC2(CC1)CC2`, which IC50 [1] is on record?
The IC50 was 0.6 nM.

And the IC50 (Cytochrome P450 3A4)?
Its IC50 is over 10000 nM.

What about the IC50 (Cytochrome P450 2C19) of the same compound?
The IC50 was over 10000 nM.

What about the Papp A→B [2] of the same compound?
Its Papp A→B is 9 ×10⁻⁶ cm/s.

What about the fraction unbound [3] of the same compound?
The fraction unbound was 0.001.

What about the logD [4] of the same compound?
The logD was 2.1.

What about the IC50 [5] of the same compound?
The IC50 was 50 nM.

What about the inhibition [6] of the same compound?
The inhibition was 38%.

And the IC50 [7]?
The IC50 was over 10000 nM.

And the efflux ratio [8]?
Its efflux ratio is 1.

What about the fraction unbound [9] of the same compound?
Its fraction unbound is 0.001.

And the Papp A→B (MDR1)?
Its Papp A→B is 3.7 ×10⁻⁶ cm/s.

What about the Papp A→B [10] of the same compound?
The Papp A→B was 5.1 ×10⁻⁶ cm/s.

What about the efflux ratio [11] of the same compound?
Its efflux ratio is 2.1.

What about the inhibition [12] of the same compound?
The inhibition was 91%.

What about the t1/2 [13] of the same compound?
The t1/2 was 1.5 h.

What about the Vdss [14] of the same compound?
The Vdss was 0.41 L/kg.

What about the half-life [15] of the same compound?
Its half-life is 9.2 h.

What about the Cmax [16] of the same compound?
Its Cmax is 22 µM.

And the half-life [17]?
Its half-life is 8.1 h.

And the clearance [18]?
Its clearance is 1.2 mL/min/kg.

What about the Vd [19] of the same compound?
The Vd was 0.88 L/kg.

And the Cmax [20]?
The Cmax was 13 µM.

What about the AUC [21] of the same compound?
The AUC was 78 µM·h.

And the clearance [22]?
The clearance was 0.3 mL/min/kg.

What about the half-life [23] of the same compound?
Its half-life is 6 h.

And the Cmax [24]?
The Cmax was 9 µM.

What about the AUC [25] of the same compound?
Its AUC is 83 µM·h.

What about the bioavailability [26] of the same compound?
The bioavailability was 68%.

And the Activity (Mus musculus [27])?
The Activity was “Active”.

What about the Activity (Mus musculus [28]) of the same compound?
The Activity was 78%.

And the Activity (Mus musculus [29])?
Its Activity is 86%.

And the Activity (Mus musculus [30])?
Its Activity is 99.5%.

What about the concentration at 3.167 h [31] of the same compound?
The concentration at 3.167 h was 25 µM.

And the concentration at 3.167 h [32]?
The concentration at 3.167 h was 79 µM.

What about the concentration at 3.167 h [33] of the same compound?
Its concentration at 3.167 h is 1.9 µM.

And the concentration at 3.167 h [34]?
Its concentration at 3.167 h is 6.2 µM.
